Test results as given in patent US20150174112A1, “COMPOSITIONS FOR TREATING FRAGILE X AND OTHER DISORDERS METHODS OF USE THEREOF, AND SCREENING FOR COMPOUNDS FOR FRAGILE X AND OTHER DISORDERS” (EMORY UNIVERSITY, priority 2005, published 2015).

Assays:
Assay type in all cases: in vivo, Drosophila
Futsch = experiment: Quantitative Western analysis of Futsch protein in fly head lysates; details: flies raised on LF with drug at effective dosage
Description: FIG. 3A illustrates a representative Western blot showing Futsch expression in w^1118, dfmr1^3+/−, and dfmr1^3−/− head lysates. Flies were raised on LF with or without drug supplements using the effective dosages. Heads from 0- to 2-day old adult flies were used to prepare protein lysates. β-actin was used as a loading control.
FIG. 3B illustrates the quantification of relative Futsch protein level from multiple Western blots using Kodak Imaging System software. The quantifications were based on duplicate Western analyses obtained from triplicate collections of […] from two separate drug treatments (6 sets of samples total). The futsch levels were first normalized to β-actin levels, then plotted as the percentage of change of each treatment/genotype compared to w^1118 (no drug), which was set as 100%.
Additionally, it was tested whether the same four compounds could rescue the biochemical phenotype of Futsch over-expression that is associated with dfmr1 deficiency. The mRNA of Futsch is normally bound and translationally repressed by dFmrp. Thus, loss of dFmrp results in excess Futsch translation.
Quantitative Western analyses were performed. Briefly, 0- to 2-day-old adult Drosophila heads were obtained, and homogenized in lysis buffer (10 mM Tris (pH 7.5), 150 mM NaCl, 30 mM EDTA (pH 8.0), 0.5% Triton X-100, and 1× complete protease inhibitor (Boehringer Mannheim). 30 fly heads were collected per sample. 10 μg total protein lysates were subjected to SDS-PAGE electrophoresis on a 4%-20% gradient Tris-HCl gel (Bio-Rad). Monoclonal anti-22C10 against Futsch (1:500) was purchased from the Developmental Studies Hybridoma Bank (DSHB), University of Iowa. For the loading control, an antibody against […] (Abcam) was used at a final concentration of 0.8 μg/ml. The signals were quantified using the Kodak Imaging System software.

[1] = tested on: homozygous dfmr1-deficient flies; experiment: Fly viability assay: rescue of homozygous dfmr1 flies on CF (JAZMIX) plus drug; details: for recovery of homozygous dFmr1 flies: 0% on JAZMIX food alone
Method: In particular, embodiments of the present disclosure include methods of screening compounds using a drosophila (fruit fly) based compound screen to identify drug candidates for the treatment of FMRP-loss related disorders.
The homozygous embryos are placed into an appropriate container (e.g., a 96-well container) containing a food with a lethal amount of glutamate and with or without a compound from a library of drugs candidates. The embryos were incubated at certain conditions for a certain amount of time (e.g., at about 25° C. for about 10 days) to allow embryonic development. The efficacy of the drug candidate is determined by scoring the number of pupae formation or the emergence of adult flies after a certain time frame. Files or pupae that came out from food with a nonlethal amount of glutamate were used as positive control, and flies or pupae that came out from food with lethal amounts of glutamate without drugs were used as negative control.
The separated homozygous embryos are then transferred to a regular fly culture vials or a 96-well container (e.g., 20 embryos per well) containing food with a lethal amount of glutamate with or without the drug (e.g., 300 μl of pre-mixed food and the drug). The embryos were incubated at 25° C. for about 10 days to allow embryonic development. The formation of pupae or adult flies can be directly quantified by visual inspection. Efficacy of drugs is determined by scoring the number of pupae formation or the emergence of adult flies after 10 days. Additional details regarding the active compositions and disorders are described in the Examples below.
(§1) To determine the cause of the observed CF lethality of dfmr1-deficient flies, HPLC amino acid analyses was performed on aqueous extracts of CF and LF food preparations and noted that the CF contained 1.8-fold more glutamate than the LF (FIG. 4). Since this could result in excess glutamate signaling, exacerbating the consequences of dFmrp loss, it was next determined whether supplementing LF with additional glutamate could decrease the viability of dfmr1-deficient flies. […] Indeed, 10 μM MPEP added to the CF rescued the homozygous deficient flies to approximately 60% of their normal viability on LF (FIG. 1C).
Fifteen of those compounds, as well as the MPEP-positive control, recovered pupal development from at least 25% of the seeded embryos (FIG. 5, Table 1). Each of these top 15 compounds underwent further validation using a larger-scale viability assay. Each vial was seeded with 100 embryos from dfmr1 heterozygous crosses, and adult progeny of both homozygous and heterozygous genotypes were counted 10 days later. Nine of the 15 compounds were validated and, for each of these, a dose-response analysis was performed to optimize the dosage (FIG. 5, Table 1). Using the optimal viability dose for each validated compound, it was explored whether other established phenotypes of dfmr1 deficiency are influenced by a selection of these compounds.
(§2) For the initial screen, 12 dfmr13/dfmr13 (GFP−) embryos were placed in each well of a 96 well plate with CF+40 μM of individual drugs. 96-well plates were kept at 25° C. and the percentage of pupae and adults recovered was scored. […] Adult progeny were counted and the relative viability of homozygous null flies was scored as the percentage of viable adult progeny raised on CF+ drug compared to the progeny on LF alone.

dfmr1 null embryos = experiment: Initial small molecule screen: pupae/adult recovery of dfmr1 null embryos on commercial food (CF); details: 12 null embryos per vial, CF supplemented with 40 μM compound, 25° C., 10 to 15 days
Description: Since the rescue of dfmr1 null lethality is an easily scored phenotype, a relatively high throughput strategy was designed to screen chemical libraries for small molecules that can restore the viability of dfmr1 null flies raised on CF (FIG. 1D). In order to seed test vials with dfmr1 null embryos only, the dfmr1 mutation was balanced with a GFP-TM6C chromosome (w^1118; dfmr1^3/Kr: GFP, TM6C). This allowed sorting of the null dfmr1 mutants from other embryos by the absence of GFP fluorescence using a flow cytometry embryo sorter (COPAS SELECT). […]
The Spectrum Collection™ compound library was obtained from MicroSource Discovery Systems, Inc. Drugs used in larger quantities for confirmation and subsequent analysis were obtained from Sigma (St. Louis, Mo.) or Tocris-Cookson (UK). […]
as §2

[2] = tested on: mushroom body structure in dfmr1 null fly brain; experiment: Staining and analysis of mushroom body morphology; details: for mushroom body defects of dfmr1 mutant adults (in words): 0- to 2-day-old adults developed on LF supplemented with drug at optimal viability dose; for brain structural abnormality (mushroom body formation) in treated dFmr1 flies (in words) / percentage of normal brains (mushroom body) after treatment: Example 2; for percentage of normal brains (mushroom body) after treatment: dFmr1 flies, 27% without treatment
Description: A striking morphological phenotype of dfmr1 deficiency in Drosophila involves structural abnormalities of the mushroom body in the fly brain. The mushroom body, important for Drosophila learning and memory, is an axon-like fiber structure composed of three paired neuronal lobes (the α, β, and γ lobes). In dfmr1 null flies, the β lobes, which normally terminate at the midline cleft, often cross through the midline. In addition, dfmr1 null flies also have missing or misdirected α and β lobes, as well as truncated or over-branched lobes. […] To test whether compounds identified in the viability screen could rescue the mushroom body morphology, 0- to 2-day-old dfmr1 mutant adults were examined that developed on LF supplemented with four of the nine compounds identified above (GABA, nipecotic acid, creatinine, and isopilocarpine).
Brains from 0- to-2-day-old adults were dissected, fixed, and stained. Anti-Fascicilin II (ID4, Developmental Studies Hybridoma Bank) was used at 1:10 dilution and Alexa anti-mouse secondary antibody (Molecular probes) 1:100. Confocal microscopy was performed using a Leica Scanning laser confocal microscope. Neuronal lobe abnormalities were analyzed and scored by obtaining optical stacks of the α and β lobes as described.

[3] = tested on: dfmr1 homozygous null progeny; experiment: Viability of flies on laboratory food (LF) supplemented with glutamate; details: glutamate added to LF, p<0.005
Method: FIG. 1B illustrates dfmr1-deficient flies raised on LF are sensitive to supplemented glutamate. Embryos of w^1118, dfmr1^3+/− and dfmr1^3−/− were allowed to develop on LF supplemented with additional glutamate. Relative viability was calculated within each genotype as the percentage of viable adult progeny raised on LF supplemented with glutamate compared to progeny raised on LF alone. (For w^1118 only: anything above 100% was indicated as 100%). (Error bar indicate SEM; *=P<0.005).
as §1

Row | SMILES | elevated Futsch protein level in dfmr1 null flies (in words) (Futsch) | mushroom body defects of dfmr1 mutant adults (in words) [2] | percentage of normal brains (mushroom body) after treatment [2] [%] | also measured
1 | Cc1cccc(C#Cc2ccccc2)n1 [MPEP] | significantly reduced | rescued |  | viability of homozygous deficient flies relative to their normal viability on LF ([1]; 10 μM MPEP added to CF): approximately 60%; dfmr1^3−/− viability on CF (in words) ([1]; CF supplemented with MPEP (10 μM), FIG. 1C, P<0.005): improved; pupal development recovered, percentage of the seeded embryos (dfmr1 null embryos): at least 25%
2 | N[C@@H](CCC(=O)O)C(=O)O [glutamate] |  |  |  | viability of dfmr1 homozygous null progeny [3]: dose-dependent decline
3 | CC[C@@H]1C(=O)OC[C@@H]1Cc1cncn1C [Pilocarpine nitrate] |  |  | 79 | recovery of homozygous dFmr1 flies ([1]; 5 microM in JAZMIX food): 88.5%; brain structural abnormality (mushroom body formation) in treated dFmr1 flies (in words) [2]: significant suppression
4 | CC[C@H]1C(=O)OC[C@@H]1Cc1cncn1C [isopilocarpine] | completely rescued | significantly improved |  | 
5 | CN1CC(=O)NC1=N [creatinine] |  |  | 85 | recovery of homozygous dFmr1 flies ([1]; 40 microM in JAZMIX food): 123.2%
6 | NCCCC(=O)O [GABA] | did not significantly influence | significantly improved |  | 
7 | O=C(O)C1CCCNC1 (centres unmarked) [nipecotic acid] | did not significantly influence | significantly improved | 73 | recovery of homozygous dFmr1 flies ([1]; 40 microM in JAZMIX food): 84%; brain structural abnormality (mushroom body formation) in treated dFmr1 flies (in words) [2]: significant suppression
